The target of this assay is P2X2/P2X3 heterotrimeric receptor (Homo sapiens) (UniProt Q9UBL9+P56373). The experiment in a line: Antagonist activity against human P2X2/3 receptor expressed in CHOK1 cells assessed as inhibition of alpha,beta-meATP-induced calcium response incubated for 20 mins by Fluo-3AM dye based FLIPR assay. It counts as functional, cell-based. The note with it: CHO-K1.

Active and inactive are the calls of the source. The rule behind the calls is not given here.

Regarding `CCN(C(=O)c1cccnc1)c1cc(C(=O)NC(C)c2cnccn2)cc(-c2ccc(C)cc2)c1` (configuration not stated), the inhibition entry is “Active”.
Next, `COCC(C)NC(=O)c1cc(NC(=O)c2ccc(C(F)(F)F)cc2Cl)cc(-c2ccc(C)cc2)c1` (configuration not stated): “Active”; `CCN(C(=O)OC)c1cc(C(=O)NC(C)c2cnccn2)cc(-c2ccc(C)cc2)c1` (configuration not stated): “Active”.
Under `Cc1ccc(-c2cc(C(=O)NC(C)c3cnccn3)cc(N(C)C(=O)c3snnc3C)c2)cc1` (configuration not stated) stands “Active”; under `CC(=O)N(c1cc(C(=O)NC(C)c2cnccn2)cc(-c2ccc(C)cc2)c1)c1ccncn1` (configuration not stated), “Active”.
As for `CC(NC(=O)c1cc(-c2ccc(Cl)cc2)cc(N(C)C(=O)N2CCOCC2)c1)c1cnccn1` (configuration not stated), the inhibition result is “Active”.
Under `CCN(C(=O)COC)c1cc(C(=O)NC(C)c2cnccn2)cc(-c2ccc(C)cc2)c1` (configuration not stated) stands “Active”.
Next, `CCC(=O)N(C)c1cc(C(=O)NC(C)COC)cc(-c2ccc(C)cc2)c1` (configuration not stated): “Active”.
Consider `CCN(C(=O)c1ccncc1)c1cc(C(=O)NC(C)COC)cc(-c2ccc(C)cc2)c1` (configuration not stated), for which the inhibition entry is “Active”.
Under `Cc1ccc(-c2cc(C(=O)NC(C)c3cnccn3)cc(N(C)C(=O)C(C)C)c2)c(F)c1` (configuration not stated) stands “Active”; under `CC(=O)N1CCC(C(=O)N(C)c2cc(C(=O)NC(C)c3cnccn3)cc(-c3ccc(C)cc3)c2)CC1` (configuration not stated), “Active”.
Next, `CC(C)C(=O)N(C)c1cc(C(=O)N[C@@H](C)CO)cc(-c2ccc(Cl)cn2)c1`: “Active”.
Under `COCC(C)NC(=O)c1cc(NC(=O)c2ccccc2)cc(-c2ccc(C)cc2)c1` (configuration not stated) stands “Active”; under `CCC(C)C(=O)N(C)c1cc(C(=O)N[C@@H](C)CO)cc(-c2ccc(C)cc2)c1` (some centres not stated), “Active”.
On to `CC(NC(=O)c1cc(-c2ccc(Cl)cc2)cc(N(C)C(=O)N(C)C)c1)c1cnccn1` (configuration not stated), for which the inhibition result is “Active”.
Next, `Cc1ccc(-c2cc(C(=O)N[C@@H](C)CO)cc(N(C)C(=O)C3CCCC3)c2)cc1`: “Active”.
Under `CCN(C(=O)C(C)C)c1cc(C(=O)N[C@@H](C)CO)cc(-c2ccc(C)cc2)c1` stands “Active”; under `Cc1ccc(-c2cc(C(=O)NC(C)c3cnccn3)cc(N(C)C(=O)C(C)C)c2)c(Cl)c1` (configuration not stated), “Active”; under `CC(C)C(=O)N(C)c1cc(C(=O)NC(C)c2cnccn2)cc(-c2ccc(F)cc2F)c1` (configuration not stated), “Active”.
For the compound `COCC(C)NC(=O)c1cc(NC(=O)c2ccco2)cc(-c2ccc(C)cc2)c1` (configuration not stated), the inhibition result is “Active”.
In the case of `CCC(=O)N(c1cc(C(=O)NC(C)c2cnccn2)cc(-c2ccc(C)cc2)c1)c1ccncn1` (configuration not stated), the inhibition result is “Active”.
As to `COCC(C)NC(=O)c1cc(NC(=O)C2CCCCC2)cc(-c2ccc(C)cc2)c1` (configuration not stated), the inhibition result was “Active”.
Under `COCC(C)NC(=O)c1cc(NC(=O)c2cscc2OC)cc(-c2ccc(C)cc2)c1` (configuration not stated) stands “Active”; under `CC(=O)N(C)c1cc(C(=O)NC(C)c2cnccn2)cc(-c2ccc(C)cc2)c1` (configuration not stated), “Active”.
Under `COCC(C)NC(=O)c1cc(NC(=O)c2cccs2)cc(-c2ccc(C)cc2)c1` (configuration not stated) stands “Active”.
Next, `COCC(C)NC(=O)c1cc(NC(=O)c2ccc(C)cc2C)cc(-c2ccc(C)cc2)c1` (configuration not stated): “Active”.
Consider `Cc1ccc(-c2cc(C(=O)NCc3cnccn3)cc(N(C)C(=O)C(C)C)c2)c(Cl)c1`, for which the inhibition entry was “Active”.
Next, `CCN(C(=O)C1CCOCC1)c1cc(C(=O)NC(C)c2cnccn2)cc(-c2ccc(C)cc2)c1` (configuration not stated): “Active”.
Under `COC[C@@H](C)NC(=O)c1cc(-c2ccc(F)cc2F)cc(N(C)C(=O)C(C)C)c1` stands “Active”; under `Cc1ccc(-c2cc(C(=O)NC(C)c3cnccn3)cc(N(C)C(=O)C3CCOCC3)c2)cc1` (configuration not stated), “Active”; under `COCC(C)NC(=O)c1cc(NC(=O)c2cc(C)cs2)cc(-c2ccc(C)cc2)c1` (configuration not stated), “Active”.
In the case of `CC(C)C(=O)N(C)c1cc(C(=O)NCc2cnccn2)cc(-c2ccc(Cl)cn2)c1`, the inhibition entry was “Active”.
Under `Cc1ccc(-c2cc(C(=O)NCc3cnc(C)cn3)cc(N(C)C(=O)C3(C)COC3)c2)nc1` stands “Active”; under `CCN(C(=O)OCC(C)C)c1cc(C(=O)NC(C)c2cnccn2)cc(-c2ccc(C)cc2)c1` (configuration not stated), “Active”; under `Cc1ccc(-c2cc(C(=O)NC(C)c3cnccn3)cc(N(C)C(=O)C3CCCCC3)c2)cc1` (configuration not stated), “Active”.
Under `CCN(c1cc(C(=O)NC(C)c2cnccn2)cc(-c2ccc(C)cc2)c1)c1cnccn1` (configuration not stated) stands “Active”; under `Cc1ccc(-c2cc(C(=O)NCc3cnccn3)cc(N(C)C(=O)C(C)C)c2)cc1`, “Active”; under `CCN(C(=O)CC(C)C)c1cc(C(=O)NC(C)c2cnccn2)cc(-c2ccc(C)cc2)c1` (configuration not stated), “Active”.
Under `CC(C)C(=O)N(C)c1cc(C(=O)NC(C)c2cnccn2)cc(-c2ccc(Cl)cc2Cl)c1` (configuration not stated) stands “Active”; under `CCN(C(=O)C(C)C)c1cc(C(=O)NC(C)c2cnccn2)cc(-c2ccc(C)cc2)c1` (configuration not stated), “Active”; under `CCN(C(=O)CC(C)C)c1cc(C(=O)NC(C)CO)cc(-c2ccc(C)cc2)c1` (configuration not stated), “Active”.
Consider `Cc1ccc(-c2cc(C(=O)NC(C)c3cnccn3)cc(N(C)C(=O)C(C)C)c2)nc1` (configuration not stated), for which the inhibition entry was “Active”.
Next, `COCC(C)NC(=O)c1cc(NC(=O)c2ccc(C)s2)cc(-c2ccc(C)cc2)c1` (configuration not stated): “Active”; `COCC(=O)N(C)c1cc(C(=O)NC(C)c2cnccn2)cc(-c2ccc(C)cc2)c1` (configuration not stated): “Active”; `COCC(C)NC(=O)c1cc(NC(=O)c2sccc2C)cc(-c2ccc(C)cc2)c1` (configuration not stated): “Active”.
Take `Cc1ccc(-c2cc(NC(=O)C(C)C)cc(C(=O)NC(C)c3cnccn3)c2)cc1` (configuration not stated): the inhibition entry was “Active”.
In the case of `Cc1ccc(-c2cc(C(=O)NC(C)c3cnccn3)cc(N(C)C(=O)C(C)C)c2)cc1` (configuration not stated), the inhibition entry was “Active”.
Under `Cc1ccc(-c2cc(C(=O)NC(C)c3cnccn3)cc(N(C)C(=O)C(C)(C)C)c2)cc1` (configuration not stated) stands “Active”.
Under `Cc1ccc(-c2cc(C(=O)NC(C)c3cnccn3)cc(N(C(=O)C(C)C)c3ccncn3)c2)cc1` (configuration not stated) stands “Active”; under `CC(C)C(=O)N(C)c1cc(C(=O)NC(C)c2cnccn2)cc(-c2ccc(Cl)cn2)c1` (configuration not stated), “Active”.
With `CCN(C(=O)OC(C)C)c1cc(C(=O)NC(C)c2cnccn2)cc(-c2ccc(C)cc2)c1` (configuration not stated), the inhibition entry was “Active”.
Under `COC[C@@H](C)NC(=O)c1cc(-c2ccc(Cl)cc2Cl)cc(N(C)C(=O)C(C)C)c1` stands “Active”; under `COCC(C)NC(=O)c1cc(NC(=O)c2cc(C)nn2C)cc(-c2ccc(C)cc2)c1` (configuration not stated), “Active”.
Under `CCN(C(C)=O)c1cc(C(=O)NC(C)c2cnccn2)cc(-c2ccc(C)cc2)c1` (configuration not stated) stands “Active”; under `COCC(C)NC(=O)c1cc(NC(=O)c2cc(C)on2)cc(-c2ccc(C)cc2)c1` (configuration not stated), “Active”.
Next, `Cc1ccc(-c2cc(C(=O)N[C@@H](C)CO)cc(N(C)C(=O)C(C)C)c2)nc1`: “Active”.
Regarding `COCC(C)NC(=O)c1cc(NC(=O)c2ccc(F)cc2Cl)cc(-c2ccc(C)cc2)c1` (configuration not stated), the inhibition entry was “Active”.
Under `COCC(C)NC(=O)c1cc(NC(=O)c2c(-c3ccccc3)noc2C)cc(-c2ccc(C)cc2)c1` (configuration not stated) stands “Active”; under `COCC(C)NC(=O)c1cc(NC(=O)c2ccccn2)cc(-c2ccc(C)cc2)c1` (configuration not stated), “Active”.
Next, `COCC(C)NC(=O)c1cc(NC(=O)c2cscn2)cc(-c2ccc(C)cc2)c1` (configuration not stated): “Active”; `Cc1ccc(-c2cc(C(=O)NC(C)c3cnccn3)cc(N(C)C(=O)C3CCCC3)c2)cc1` (configuration not stated): “Active”; `CCC(CC)C(=O)N(C)c1cc(C(=O)NC(C)c2cnccn2)cc(-c2ccc(C)cc2)c1` (configuration not stated): “Active”.
Under `CCC(C)(C)C(=O)N(C)c1cc(C(=O)NC(C)c2cnccn2)cc(-c2ccc(C)cc2)c1` (configuration not stated) stands “Active”; under `CCNC(=O)N(C)c1cc(C(=O)NC(C)c2cnccn2)cc(-c2ccc(Cl)cc2)c1` (configuration not stated), “Active”; under `Cc1ccc(-c2cc(C(=O)N[C@@H](C)CO)cc(N(C)C(=O)C(C)C)c2)cc1`, “Active”.
Regarding `Cc1ccc(-c2cc(C(=O)NCc3cnc(C)cn3)cc(N(C)C(=O)C(C)C)c2)nc1`, the inhibition entry is “Active”.
Take `COCC(C)NC(=O)c1cc(NC(=O)c2nc(C)oc2C)cc(-c2ccc(C)cc2)c1` (configuration not stated): the inhibition entry was “Active”.
`Cc1ccc(-c2cc(C(=O)N[C@@H](C)CO)cc(N(C)C(=O)C(C)C)c2)c(F)c1`: the inhibition result is “Active”.
Under `Cc1ccc(-c2cc(C(=O)N[C@@H](C)CO)cc(N(C)C(=O)C(C)C)c2)c(Cl)c1` stands “Active”.
Next, `Cc1ccc(-c2cc(C(=O)NCc3cnccn3)cc(N(C)C(=O)C(C)C)c2)c(F)c1`: “Active”; `CCC(=O)N(C)c1cc(C(=O)N[C@H](C)CN2CCOCC2)cc(-c2ccc(C)cc2)c1`: “Active”.
Under `CCC(C)C(=O)N(C)c1cc(C(=O)NC(C)c2cnccn2)cc(-c2ccc(C)cc2)c1` (configuration not stated) stands “Active”.

(Values after ChEMBL document CHEMBL3714755, “Pyridinyl amides as P2X3 and P2X2/3 inhibitors” (2014).)
